Experimental data reported in US7531320B2, “Modulation of β-catenin/TCF-activated transcription” (priority 2003, dated 2009).

Legend:
Assay type in all cases: cell-based, human
[1] = tested on: caspase-3/7 in HCT116 cells; test: Caspase-3/7 activity assay, HCT116 cells; details: 25 μM, 24 hours, compared to CCD18Co cells
Experimental: FIG. 6. • A. COMPOUND 1 arrests cells in G1. FACS analysis was performed on SW480 (lower panel) and HCT116 (upper panel) cells treated for 24 hours with either COMPOUND 1 (25 μM) (right) or control (0.5% DMSO (left). 5.5×10^6 cells were fixed and stained with propidium iodide (PI). G0/G1, S, and G2/M are indicated by arrows. • B. COMPOUND 1 selectively activates caspases in colon carcinoma cell lines. SW480 and HCT116 (left graph) cells (10^5) along with the normal colonocytes, CCD18Co (right graph) were treated with either control (0.5% DMSO) or COMPOUND 1 (25 μM). 24 hours post treatment, cells were lysed and the caspase-3/7 enzymatic activities were measured. Relative fluorescence units (RFU) were calculated by subtracting the unit values of the blank (control, without cells) from the treated samples (COMPOUND 1 or control) and plotted.
SW480, HCT116, and CCD18Co cells were plated at 10^5 cells per well (96-well plates) for 24 hours prior to treatment. 25 μM of COMPOUND 1 or control (0.5% DMSO) was added to each well. 24 hours post treatment, cells were lysed and caspase activity was measured using a caspase-3/7 activity kit (Apo-One Homogeneous caspase-3/7 assay, #G77905, Promega). Relative fluorescence units (RFU) were obtained by subtracting the unit values of the blank (control, without cells) from the experimental measured values. […]

c-jun = test: Real Time RT-PCR in SW480 cells, c-jun; details: 25 μM; for ΔCT c-jun: relative to β-actin
Experimental: (§1) The RNeasy Midi Kit (Qiagen) was used for RNA extraction and Real Time RT-PCR was performed according to the protocol provided with the SYBR Green PCR Master Mix Kit (Perkin Elmer Biosystems, Shelton, Conn.). The primers used for cyclin D1, axin2, hnkd, c-myc, c-jun, and fra-1 amplifications were: cyclin D1 forward primer:5′-[…]-CCTGCTG-3′ (SEQ ID NO: 32) reverse primer: 5′-[…]-3′ (SEQ ID NO: 33) leading to a product size of approximately 300 bp; axin2 forward primer: 5′-[…] GGAAA-CT-3′ (SEQ ID NO: 34) and reverse primer: 5′-[…]-GAGA-3′ (SEQ ID NO: 35); hnkd forward primer: 5′-[…] TTGCGT-3′ (SEQ ID NO: 36) and the reverse primer: 5′-[…] ACGT-3′ (SEQ ID NO: 37); c-myc forward primer: 5′-GAA-[…] CTGC-3′ (SEQ ID NO: 38) and reverse primer: 5′-[…]-G-3′ (SEQ ID NO: 39); c-jun forward primer: 5′-[…]-3′ (SEQ ID NO: 40) and reverse primer: 5′-[…]-3′ (SEQ ID NO: 41); fra-1 forward primer: 5′-ACC-[…]-[…]-3′ (SEQ ID NO: 42) and reverse primer: 5′-[…]-TT-3′ (SEQ ID NO: 43). β-actin was used for normalization. […]
(§2) 1 μg of mRNA, for each time point, was subjected to Real Time RT-PCR. Expression level of endogenous cyclin D1, c-myc, fibronectin, hnkd, axin2, c-jun, and BMP-4 were measured relative to β-actin. Quantitation of The ΔCycle of Threshold (CT) values was determined by subtracting the average values of each set by the corresponding average values obtained for β-actin. […]
(§3) The cyclin D1 gene is inappropriately expressed in many different tumor types, and is known to be a direct target of the Wnt/β-catenin pathway (Shtutman et al., “The cyclin D1 gene is a target of the beta-catenin/LEF-1 pathway,” Proc. Natl. Acad. Sci. USA 96:5522-27 (1999); Tetsu et al., “Beta-catenin regulates expression of cyclin D1 in colon carcinoma cells,” Nature 398:422-26 (1999)). […] Expression level of endogenous cyclin D1, c-myc, fibronectin, hnkd, axin2, c-jun, and BMP-4 were measured relative to β-actin. Quantitation of The ΔCycle of Threshold (CT) values was determined by subtracting the average values of each set by the corresponding average values obtained for β-actin. […]

cyclin D1 = test: Real Time RT-PCR in SW480 cells, cyclin D1; details: 25 μM; for ΔCT cyclin D1: relative to β-actin
Experimental: as §1, §2, §3

O=C1C(Cc2ccc(O)cc2)N2C(=O)CCN(C(=O)NCc3ccccc3)C2CN1Cc1cccc2ccccc12 (stereo not shown) [COMPOUND 1]
Caspase-3/7 activity [1]: specifically and significantly activated
mRNA c-jun (direction) (c-jun): ↑
ΔCT c-jun (c-jun; 4 hours): 0
ΔCT c-jun (c-jun; 24 hours): −2.9
mRNA cyclin D1 (direction) (cyclin D1): ↓
ΔCT cyclin D1 (cyclin D1; 4 hours): 0.6
ΔCT cyclin D1 (cyclin D1; 24 hours): 3.1
